This is an account of results in article PMC9603750, “Chalcone-Acridine Hybrid Suppresses Melanoma Cell Progression via G2/M Cell Cycle Arrest, DNA Damage, Apoptosis, and Modulation of MAP Kinases Activity” (International Journal of Molecular Sciences, 2022).

SMILES strings stand for the structures.

Common to all, as to assay: MTT assay (metabolic activity)
In general terms: Formazan colour is commonly taken as a measure of viable cells.

One assay has as its system A2058. Format: cell-based, human. To be noted: Homo sapiens; A2058, 72 h incubation. The protocol: (§1) Cell lines A2058 (human melanoma lymph node metastasis, cat. 91100402) from ECACC (Public Health England, Salisbury, UK) and BLM (human melanoma lung metastasis a gift from prof. K. Smetana, Institute of Anatomy, Charles University in Prague) were cultured in a medium consisting of high glucose Dulbecco’s Modified Eagle’s Medium (DMEM) and sodium pyruvate (GE Healthcare, Piscataway, NJ, USA). The growth medium was supplemented with a 10% fetal bovine serum (FBS) and antibiotic/antimycotic solution 1 × HyClone™ (GE Healthcare, Chicago, IL, USA). The MCF-10A (human mammary epithelial cells) cell line was cultured in a medium consisting of high glucose Dulbecco’s Modified Eagle’s Medium F12 (DMEM/F12) (Biosera, Kansas City, MO, USA). The growth medium was supplemented with a 10% FBS, antibiotic/antimycotic solution 1 × HyClone™ (GE Healthcare, Chicago, IL, USA), epidermal growth factor (EGF) (20 ng/mL final), hydrocortisone (0.5 μg/mL final) and insulin (10 μg/mL final) (Sigma-Aldrich Chemie, Steinheim, Germany). Cells were cultured in humidified air at 37 °C with atmosphere containing 5% CO2.
(§2) The half-maximal inhibitory concentration values (IC50) and metabolism inhibition of tested synthetic chalcone derivatives were determined by MTT (3-(4,5-di-methylthiazol-2-yl)2,5-diphenyltetrazolium bromide) colorimetric assay (Sigma-Aldrich Chemie, Steinheim, Germany). Tested cell lines were seeded at a density of 5 × 10^3 cells/well in 96-well culture plates. After 24 h, the tested chalcones in concentrations of 100, 50 and 10 μmol/L were added and incubation proceeded for the next 72 h. In the next step, 10 μL of MTT (5 mg/mL) was added to each well containing cells and incubated for another 4 h at 37 °C during which MTT was metabolized to insoluble formazan in cells. After 4 h, 100 μL of a 10% sodium dodecyl sulphate (SDS) was added to each well and another 24 h were allowed for the formazan crystals to dissolve. The metabolic activity of cells was evaluated by measuring the absorbance at wavelength 540 nm using the automated Cytation™ 3 Cell Imaging Multi-Mode Reader (Biotek, Winooski, VT, USA). Three independent analyses were performed.

Another assay deals with BLM. Format: cell-based, human. To be noted: Homo sapiens; BLM, 72 h incubation. The protocol:
as §1, §2

A further assay relates to MCF-10A. Format: cell-based. The conditions noted are these: Homo sapiens; MCF-10A noncancer cell line, 72 h incubation. The protocol: as §1, §2

The term IC50 denotes the concentration that gives 50% inhibition. As for `COn1cc(/C=C/C(=O)c2ccccc2F)c2ccccc21` [ZKCH-11A, (2E)-1-(2-fluorophenyl)-3-(1-methoxy-1H-indol-3-yl)prop-2-en-1-one], the IC50 turned out to be 31.9 ± 0.95 µM with A2058, 35.3 ± 6.1 µM with BLM and 85 ± 2.19 µM in the assay with MCF-10A.
The like results for `CC(C)Oc1[nH]c2ccccc2c1/C=C/C(=O)c1ccccc1F` [ZKCH-11E, (2E)-1-(2-fluorophenyl)-3-[2-(propan-2-yloxy)-1H-indol-3-yl]prop-2-en-1-one] were, in that order, 37.3 ± 2.28 µM, 33.8 ± 2.14 µM and 44.7 ± 4.96 µM.
`O=C(/C=C/c1c[nH]c2ccccc12)c1ccccc1F` [ZKCH-11H, (2E)-1-(2-fluorophenyl)-3-(1H-indol-3-yl)prop-2-en-1-one]: the IC50 with A2058 came out at 42.4 ± 2.98 µM; with BLM, 40.9 ± 2.62 µM; in the assay with MCF-10A, 60.7 ± 3.09 µM.
The like results for `CCCCOc1[nH]c2ccccc2c1/C=C/C(=O)c1ccccc1F` [ZKCH-11F, (2E)-3-(2-butoxy-1H-indol-3-yl)-1-(2-fluorophenyl)prop-2-en-1-one] were, in that order, 45.8 ± 2.54 µM, 47.7 ± 1.49 µM and over 100 µM.
The like results for `CC(C)COc1[nH]c2ccccc2c1/C=C/C(=O)c1ccccc1F` [ZKCH-11G, (2E)-1-(2-fluorophenyl)-3-[2-(2-methylpropoxy)-1H-indol-3-yl]prop-2-en-1-one] were, in that order, 40 ± 1.37 µM, 39.5 ± 3.9 µM and 51.3 ± 3.94 µM.
For `CCOc1[nH]c2ccccc2c1/C=C/C(=O)c1ccccc1F` [ZKCH-11C, (2E)-3-(2-ethoxy-1H-indol-3-yl)-1-(2-fluorophenyl)prop-2-en-1-one], the results for the IC50 in the assay on A2058, in the assay on BLM and in the assay on MCF-10A were 41.6 ± 0.73 µM, 38.55 ± 0.06 µM and over 100 µM, respectively.
